The assay has as its target T1, LHRH (Rattus norvegicus, UniProt P30969).
T1 construct: endogenous in cells; host or cells: rat pituitary cells (own knowledge of the cited Haviv 1989 method)
T1 sequence (P30969 1-327): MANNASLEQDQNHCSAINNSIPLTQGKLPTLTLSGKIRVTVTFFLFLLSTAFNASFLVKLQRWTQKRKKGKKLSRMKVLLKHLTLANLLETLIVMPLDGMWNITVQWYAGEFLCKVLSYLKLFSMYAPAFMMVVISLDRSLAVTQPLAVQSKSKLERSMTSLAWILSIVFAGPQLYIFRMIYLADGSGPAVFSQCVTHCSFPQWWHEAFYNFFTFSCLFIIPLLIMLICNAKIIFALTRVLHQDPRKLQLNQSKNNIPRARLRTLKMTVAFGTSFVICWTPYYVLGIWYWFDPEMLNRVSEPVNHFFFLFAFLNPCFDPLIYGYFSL
Briefly: in vitro test for LHRH antagonist potency (pA2). The format is cell-based. The note with it: negative logarithm of the antagonist concentration required to shift the response curve produced by the agonist leuprolide to two-fold higher concentration. The protocol:
Representative compounds of the present invention were evaluated in an in vitro test for LHRH antagonist potency (pA2). The test employed the method detailed in F. Haviv, et al. J. Med. Chem., 32:2340-2344 (1989). The values of pA2 are the negative logarithms of the concentration of the particular antagonist test compound required to shift the response curve produced by the agonist leuprolide to two-fold higher concentration. (Leuprolide is the LHRH agonist having the structure 5-oxo-Pro^1 -His^2 -Trp^3 -Ser^4 -Tyr^5 -D-Leu^6 -Leu^7 -Arg^8 -Pro^9 -NHEt and is disclosed and claimed in U.S. Pat. No. 4,005,063.) Typically pA2 values of 9.5 or greater are indicative of good LHRH antagonist potency, with values of 10.0 or greater being preferred.

Structures are written as SMILES. Starred links: 1 amine or outer side, 2 acyl side, 3 side chain; linkers in the order of their positions; H or OH if unused. Non-standard residues stand in square brackets, D forms with d. Residues, ends and D or L forms follow the SMILES beside them. Groups on a side chain read outwards from the residue. ξ: configuration not given here. *: point of attachment. Shikimoyl = O=C(C1=C[C@@H](O)[C@@H](O)[C@H](O)C1)*; ξTetrahydrofuran2carbonyl = O=C(C1CCCO1)*; dPhe(4-Cl) = N[C@H](Cc1ccc(Cl)cc1)C(=O)O; d2Nal = N[C@H](Cc1ccc2ccccc2c1)C(=O)O; Lys(iPr) = CC(C)NCCCC[C@H](N)C(=O)O; NMeY = CN[C@@H](Cc1ccc(O)cc1)C(=O)O; dCit = NC(=O)NCCC[C@@H](N)C(=O)O; d3Pal = N[C@H](Cc1cccnc1)C(=O)O; Suc = O=C(CCC(=O)[*:2])[*:1]; Nicotinoyl = O=C(c1cccnc1)*; Ava = NCCCCC(=O)O; GABA = NCCCC(=O)O; azaGly = NNC(=O)O

A word on the Kb: it is the equilibrium dissociation constant of an antagonist, usually derived from a functional assay.

Turning to `CC(C)C[C@H](NC(=O)[C@@H](CCCCNC(=O)c1cccnc1)NC(=O)[C@H](Cc1ccc(O)cc1)N(C)C(=O)[C@H](CO)NC(=O)[C@@H](Cc1cccnc1)NC(=O)[C@@H](Cc1ccc(Cl)cc1)NC(=O)[C@@H](Cc1ccc2ccccc2c1)NC(=O)CCCNC(=O)c1cccnc1)C(=O)N[C@@H](CCCCNC(C)C)C(=O)N1CCC[C@H]1C(=O)N[C@H](C)C(N)=O` [Example 6c, N-Nicotinyl-4Aminobutyryl-D2Nal-D4ClPhe-D3Pal-Ser-NMeTyr-DLys(N-epsilon-Nicotinyl) -Leu-Lys(N-epsilon-Isopropyl)-Pro-DAlaNH2] ({Nicotinoyl-GABA}-[d2Nal][dPhe(4-Cl)][d3Pal]S[NMeY][dK](Nicotinoyl)L[Lys(iPr)]P[dA]-NH2), the Kb is 0.0224 nM. In the case of `CC(C)C[C@H](NC(=O)[C@@H](CCCCNC(=O)c1cccnc1)NC(=O)[C@H](Cc1ccc(O)cc1)N(C)C(=O)[C@H](CO)NC(=O)[C@@H](Cc1cccnc1)NC(=O)[C@@H](Cc1ccc(Cl)cc1)NC(=O)[C@@H](Cc1ccc2ccccc2c1)NC(=O)CCCNC(=O)C1=C[C@@H](O)[C@@H](O)[C@H](O)C1)C(=O)N[C@@H](CCCCNC(C)C)C(=O)N1CCC[C@H]1C(=O)N[C@H](C)C(N)=O` [Example 6d, N-Shikimyl-4-Aminobutyryl-D2Nal-D4ClPhe-D3Pal-Ser-NMeTyr-DLys(N-epsilon-Nicotinyl) -Leu-Lys(N-epsilon-Isopropyl)-Pro-DAlaNH2] ({Shikimoyl-GABA}-[d2Nal][dPhe(4-Cl)][d3Pal]S[NMeY][dK](Nicotinoyl)L[Lys(iPr)]P[dA]-NH2) it was 0.0126 nM; in that of `CC(C)C[C@H](NC(=O)[C@@H](CCCCNC(=O)c1cccnc1)NC(=O)[C@H](Cc1ccc(O)cc1)N(C)C(=O)[C@H](CO)NC(=O)[C@@H](Cc1cccnc1)NC(=O)[C@@H](Cc1ccc(Cl)cc1)NC(=O)[C@@H](Cc1ccc2ccccc2c1)NC(=O)CCCCNC(=O)C1=C[C@@H](O)[C@@H](O)[C@H](O)C1)C(=O)N[C@@H](CCCCNC(C)C)C(=O)N1CCC[C@H]1C(=O)N[C@H](C)C(N)=O` [Example 6f, N-Shikimyl-5Aminovaleryl-D2Nal-D4ClPhe-D3Pal-Ser-NMeTyr-DLys(N-epsilon-Nicotinyl) -Leu-Lys(N-epsilon-Isopropyl)-Pro-DAlaNH2] ({Shikimoyl-Ava}-[d2Nal][dPhe(4-Cl)][d3Pal]S[NMeY][dK](Nicotinoyl)L[Lys(iPr)]P[dA]-NH2), 0.0257 nM. `CC(C)C[C@H](NC(=O)[C@@H](CCCCNC(=O)c1cccnc1)NC(=O)[C@H](Cc1ccc(O)cc1)N(C)C(=O)[C@H](CO)NC(=O)[C@@H](Cc1cccnc1)NC(=O)[C@@H](Cc1ccc(Cl)cc1)NC(=O)[C@@H](Cc1ccc2ccccc2c1)NC(=O)[C@@H](CO)NC(=O)C1=C[C@@H](O)[C@@H](O)[C@H](O)C1)C(=O)N[C@@H](CCCCNC(C)C)C(=O)N1CCC[C@H]1C(=O)N[C@H](C)C(N)=O` [Example 7, N-Shikimyl-DSer-D2Nal-D4ClPhe-D3Pal-Ser-NMeTyr-DLys(N-epsilon-Nicotinyl) -Leu-Lys(N-epsilon-Isopropyl)-Pro-DAlaNH2] (Shikimoyl-[dS][d2Nal][dPhe(4-Cl)][d3Pal]S[NMeY][dK](Nicotinoyl)L[Lys(iPr)]P[dA]-NH2): the Kb was 0.0263 nM.

For `CC(C)C[C@H](NC(=O)[C@@H](CCCCNC(=O)CNC(=O)c1cccnc1)NC(=O)[C@H](Cc1ccc(O)cc1)N(C)C(=O)[C@H](CO)NC(=O)[C@@H](Cc1cccnc1)NC(=O)[C@@H](Cc1ccc(Cl)cc1)NC(=O)[C@@H](Cc1ccc2ccccc2c1)NC(=O)CNC(=O)c1cccnc1)C(=O)N[C@@H](CCCCNC(C)C)C(=O)N1CCC[C@H]1C(=O)N[C@H](C)C(N)=O` [Example 8, N-Nicotinyl-Gly-D2Nal-D4ClPhe-D3Pal-Ser-NMeTyr-DLys(Gly-Nicotinyl)-Leu-Lys (N-epsilon-Isopropyl)-Pro-DAlaNH2] (Nicotinoyl-G[d2Nal][dPhe(4-Cl)][d3Pal]S[NMeY][dK]([Gly-Nicotinoyl])L[Lys(iPr)]P[dA]-NH2), the antagonist dissociation constant (Kb) was 0.0204 nM. Regarding `CC(C)C[C@H](NC(=O)[C@@H](CCCCNC(=O)NNC(=O)c1cccnc1)NC(=O)[C@H](Cc1ccc(O)cc1)N(C)C(=O)[C@H](CO)NC(=O)[C@@H](Cc1cccnc1)NC(=O)[C@@H](Cc1ccc(Cl)cc1)NC(=O)[C@@H](Cc1ccc2ccccc2c1)NC(=O)CNC(=O)c1cccnc1)C(=O)N[C@@H](CCCCNC(C)C)C(=O)N1CCC[C@H]1C(=O)N[C@H](C)C(N)=O` [Example 9, N-Nicotinyl-Gly-D2Nal-D4ClPhe-D3Pal-Ser-NMeTyr-DLys(Azagly-Nicotinyl)-Leu-Lys(N-epsilon-Isopropyl) -Pro-DAlaNH2] (Nicotinoyl-G[d2Nal][dPhe(4-Cl)][d3Pal]S[NMeY][dK]([azaGly-Nicotinoyl])L[Lys(iPr)]P[dA]-NH2), the Kb was 0.0347 nM.

For `CC(C)C[C@H](NC(=O)[C@@H](CCCNC(N)=O)NC(=O)[C@H](Cc1ccc(O)cc1)N(C)C(=O)[C@H](CO)NC(=O)[C@@H](Cc1cccnc1)NC(=O)[C@@H](Cc1ccc(Cl)cc1)NC(=O)[C@@H](Cc1ccc2ccccc2c1)NC(=O)CNC(=O)C1CCCO1)C(=O)N[C@@H](CCCNC(=N)N)C(=O)N1CCC[C@H]1C(=O)N[C@H](C)C(N)=O` (stereo partly drawn) [Example 13a, N-(R,S)-Tetrahydro-Fur-2-oyl-Gly-D2Nal-D4ClPhe-D3Pal-Ser-NMeTyr-DCit-Leu-Arg-Pro-DAlaNH2] (ξTetrahydrofuran2carbonyl-G[d2Nal][dPhe(4-Cl)][d3Pal]S[NMeY][dCit]LRP[dA]-NH2), the antagonist dissociation constant (Kb) is 0.00447 nM. With `CC(C)C[C@H](NC(=O)[C@@H](CCCNC(N)=O)NC(=O)[C@H](Cc1ccc(O)cc1)N(C)C(=O)[C@H](CO)NC(=O)[C@@H](Cc1cccnc1)NC(=O)[C@@H](Cc1ccc(Cl)cc1)NC(=O)[C@@H](Cc1ccc2ccccc2c1)NC(=O)CNC(=O)C1=C[C@@H](O)[C@@H](O)[C@H](O)C1)C(=O)N[C@@H](CCCNC(=N)N)C(=O)N1CCC[C@H]1C(=O)N[C@H](C)C(N)=O` [Example 13b, N-Shikimyl-Gly-D2Nal-D4ClPhe-D3Pal-Ser-NMeTyr-DCit-Leu-Arg-Pro-DAlaNH2] (Shikimoyl-G[d2Nal][dPhe(4-Cl)][d3Pal]S[NMeY][dCit]LRP[dA]-NH2), the antagonist equilibrium constant (Kb) is 0.00955 nM. In the case of `CC(C)C[C@H](NC(=O)[C@@H](CCCNC(N)=O)NC(=O)[C@H](Cc1ccc(O)cc1)N(C)C(=O)[C@H](CO)NC(=O)[C@@H](Cc1cccnc1)NC(=O)[C@@H](Cc1ccc(Cl)cc1)NC(=O)[C@@H](Cc1ccc2ccccc2c1)NC(=O)CNC(=O)c1cccnc1)C(=O)N[C@@H](CCCNC(=N)N)C(=O)N1CCC[C@H]1C(=O)N[C@H](C)C(N)=O` [Example 13c, N-Nicotinyl-Gly-D2Nal-D4ClPhe-D3Pal-Ser-NMeTyr-DCit-Leu-Arg-Pro-DAlaNH2] (Nicotinoyl-G[d2Nal][dPhe(4-Cl)][d3Pal]S[NMeY][dCit]LRP[dA]-NH2) it was 0.00355 nM; in that of `CC(C)C[C@H](NC(=O)[C@@H](CCCNC(N)=O)NC(=O)[C@H](Cc1ccc(O)cc1)N(C)C(=O)[C@H](CO)NC(=O)[C@@H](Cc1cccnc1)NC(=O)[C@@H](Cc1ccc(Cl)cc1)NC(=O)[C@@H](Cc1ccc2ccccc2c1)NC(=O)CNC(=O)CCC(=O)O)C(=O)N[C@@H](CCCNC(=N)N)C(=O)N1CCC[C@H]1C(=O)N[C@H](C)C(N)=O` [Example 13d, N-Succinyl-Gly-D2Nal-D4ClPhe-D3Pal-Ser-NMeTyr-DCit-Leu-Arg-Pro-DAlaNH2] (Suc-G[d2Nal][dPhe(4-Cl)][d3Pal]S[NMeY][dCit]LRP[dA]-NH2), 0.0407 nM. The value for `CC(C)C[C@H](NC(=O)[C@@H](CCCNC(N)=O)NC(=O)[C@H](Cc1ccc(O)cc1)N(C)C(=O)[C@H](CO)NC(=O)[C@@H](Cc1cccnc1)NC(=O)[C@@H](Cc1ccc(Cl)cc1)NC(=O)[C@@H](Cc1ccc2ccccc2c1)NC(=O)[C@@H](C)NC(=O)C1=C[C@@H](O)[C@@H](O)[C@H](O)C1)C(=O)N[C@@H](CCCNC(=N)N)C(=O)N1CCC[C@H]1C(=O)N[C@H](C)C(N)=O` [Example 13e, N-Shikimyl-DAla-D2Nal-D4ClPhe-D3Pal-Ser-NMeTyr-DCit-Leu-Arg-Pro-DAlaNH2] (Shikimoyl-[dA][d2Nal][dPhe(4-Cl)][d3Pal]S[NMeY][dCit]LRP[dA]-NH2) was 0.0316 nM. The value for `CC(C)C[C@H](NC(=O)[C@@H](CCCNC(N)=O)NC(=O)[C@H](Cc1ccc(O)cc1)N(C)C(=O)[C@H](CO)NC(=O)[C@@H](Cc1cccnc1)NC(=O)[C@@H](Cc1ccc(Cl)cc1)NC(=O)[C@@H](Cc1ccc2ccccc2c1)NC(=O)[C@@H](CO)NC(=O)C1=C[C@@H](O)[C@@H](O)[C@H](O)C1)C(=O)N[C@@H](CCCNC(=N)N)C(=O)N1CCC[C@H]1C(=O)N[C@H](C)C(N)=O` [Example 13f, N-Shikimyl-DSer-D2Nal-D4ClPhe-D3Pal-Ser-NMeTyr-DCit-Leu-Arg-Pro-DAlaNH2] (Shikimoyl-[dS][d2Nal][dPhe(4-Cl)][d3Pal]S[NMeY][dCit]LRP[dA]-NH2) was 0.0178 nM.

Source of the values: patent US5502035A, “N-terminus modified analogs of LHRH” (Tap Holdings Inc., priority 1994, dated 1996).
